Data as given in patent US6410523B1, “Vitamin D derivatives substituted at the 2beta-position” (Chugai Seiyaku Kabushiki Kaisha, priority 1998, dated 2002).

Assays:
[1] = target: T1, chick small intestine vitamin D receptor (Gallus gallus, UniProt O42392); assay: Affinity for chick small intestine vitamin D receptor (3H-1α,25-dihydroxyvitamin D3 competition, dextran coated charcoal); assay type: binding; conditions: amount of the test compound providing B/B0=0.5; 3H-1α,25-dihydroxyvitamin D3 as radioligand
T1 construct: A solution of a chick small intestine vitamin D receptor; from tissue; host or cells: chick small intestine
T1 sequence (O42392 1-451): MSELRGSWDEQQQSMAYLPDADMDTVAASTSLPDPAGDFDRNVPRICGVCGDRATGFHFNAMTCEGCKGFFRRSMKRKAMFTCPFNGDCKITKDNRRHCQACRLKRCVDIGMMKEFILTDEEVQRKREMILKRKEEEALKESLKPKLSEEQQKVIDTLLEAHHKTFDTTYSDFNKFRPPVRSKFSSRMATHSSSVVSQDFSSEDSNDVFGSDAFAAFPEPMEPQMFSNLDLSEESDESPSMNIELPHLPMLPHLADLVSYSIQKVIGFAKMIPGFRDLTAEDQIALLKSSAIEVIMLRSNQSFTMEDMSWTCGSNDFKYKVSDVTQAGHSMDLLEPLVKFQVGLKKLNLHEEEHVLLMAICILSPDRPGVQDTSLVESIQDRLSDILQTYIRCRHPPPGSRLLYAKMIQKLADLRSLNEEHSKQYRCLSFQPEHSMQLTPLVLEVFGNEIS
Protocol: (§1) A solution of a chick small intestine vitamin D receptor, or a solution of a rat plasma vitamin D binding protein was added, and the resulting mixture was left to stand. Then, a dextran coated charcoal solution was added, and the mixture was left to stand in ice cooling, and centrifuged. To the supernatant, a liquid scintillator was added, and the mixture was measured for radioactivity.
(§2) (50% binding ability refers to the amount of the test compound providing B/B0=0.5)

[2] = target: T2, rat plasma vitamin D binding protein (Rattus norvegicus, UniProt P04276); assay: Affinity for rat plasma vitamin D binding protein (3H-25-hydroxyvitamin D3 competition, dextran coated charcoal); conditions: for 50% binding ability: amount of the test compound providing B/B0=0.5, 3H-25-hydroxyvitamin D3 as radioligand
T2 construct: from tissue; host or cells: rat plasma
T2 sequence (P04276 17-476): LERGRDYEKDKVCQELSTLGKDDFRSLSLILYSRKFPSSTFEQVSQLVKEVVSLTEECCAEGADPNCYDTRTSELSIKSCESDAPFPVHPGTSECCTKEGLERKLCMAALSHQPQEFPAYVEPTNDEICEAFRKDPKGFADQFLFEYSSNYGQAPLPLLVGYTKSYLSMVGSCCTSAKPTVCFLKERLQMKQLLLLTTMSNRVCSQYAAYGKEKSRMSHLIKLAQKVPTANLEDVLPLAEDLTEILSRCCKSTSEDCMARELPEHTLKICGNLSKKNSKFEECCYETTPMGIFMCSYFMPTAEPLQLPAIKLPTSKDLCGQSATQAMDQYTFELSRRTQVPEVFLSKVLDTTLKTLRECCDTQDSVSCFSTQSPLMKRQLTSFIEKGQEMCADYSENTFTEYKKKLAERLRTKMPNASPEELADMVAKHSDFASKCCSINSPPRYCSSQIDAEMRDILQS
Protocol: as §1, with “radioactivity. B/B0 (B=the value of radioactivity measured upon addition of the test compound, B0=the value of radioactivity measured without addition of the test compound) was calculated to find the concentration of the test compound at which B/B0=0.5.” for “radioactivity.”
as §2

Row | 50% binding ability [1] [ng] | 50% binding ability [2] [ng] | Ratio ([2]; affinity relative to 1,25-dihydroxyvitamin D3 = 1) | Structure (SMILES)
1 | 0.455 | 4 | – | C=C1/C(=C\C=C2/CCC[C@@]3(C)C2CC[C@@H]3[C@H](C)CCCC(C)(C)O)CC(O)C(OCCC(=O)OC)C1O (stereo partly drawn) [Compound 2, 2β-(2-methoxycarbonylethyloxy)-1α, 3β,25-trihydroxy-9,10-secocholesta-5,7,10(19)-triene]
2 | – | 0.209 | 129 | C=C1CC[C@H](O)C/C1=C/C=C1\CCC[C@]2(C)[C@@H]([C@H](C)CCCC(C)(C)O)CC[C@@H]12 [25-Hydroxyvitamin D3, 25-hydroxyvitamin D3]
